# Measured values from article PMC9346113, “Therapeutic impact of BET inhibitor BI 894999 treatment: backtranslation from the clinic” (British Journal of Cancer, 2022).
# Where two headings read alike, the source gives them in different places.
# Key:
# [1] = test system: Ty-82; experiment: Combination viability assay, Bliss analysis (CGI), Ty-82; format: cell-based, human; conditions: partner in combination with BI 894999 (10–20 nM)
# Procedure: (§1) Viability assays were performed on 96-well flat-bottom microtiter plates and incubated with Alamar Blue solution (Invitrogen, Carlsbad, US-CA). The effects of drug combinations were analysed using the Bliss Independence Model.
# [2] = test system: 10–15 BRD4-NUT; experiment: Cell proliferation assay (Alamar readout), 10–15; format: cell-based, human; conditions: 96h, read-out: geomean GI50
# Procedure: (§2) The NUT Carcinoma cell line Ty-82 was purchased from JCRB Japan No. 1330 and cultivated in RPMI 1640 supplemented with 10% fetal calf serum (FCS). The NC cell lines 10–15, 14169 and 10326 were in-licensed from Christopher French, Brigham & Womens Hospital, Boston, and were cultivated in DMEM supplemented with glutamax and 10% FCS.
# as §1
# (§3) Dose response curves (96h cell proliferation assay - Alamar readout) on four NC cell lines with BET inhibitor BI 894999. Yellow bar: readout t zero (before adding of compound). Green bar: DMSO control (max proliferation).
# (§4) Dose response curves (96h cell proliferation assay - Alamar readout) on four NC cell lines with multiple BET inhibitors.
# [3] = test system: Ty-82 BRD4-NUT; experiment: Cell proliferation assay (Alamar readout), Ty-82; format: cell-based, human; conditions: read-out: geomean GI50
# Procedure: as §2, §1, §3, §4
# [4] = test system: 10326 BRD3-NUT; experiment: Cell proliferation assay (Alamar readout), 10326; format: cell-based, human; conditions: 96h, read-out: geomean GI50
# Procedure: as §2, §1, §3, §4
# [5] = test system: 14169 BRD4-NUT; experiment: Cell proliferation assay (Alamar readout), 14169; format: cell-based, human; conditions: 96h, read-out: geomean GI50
# Procedure: as §2, §1, §3, §4
# [6] = test system: 10–15 xenografts; design: method as in PMID 32371576; conditions: mice bearing 10–15 xenografts; tumour regression not described; cited from earlier work
# [7] = test system: T1, BRD4-NUT; experiment: Immunofluorescence staining of NUT megadomains, Ty-82; format: cell-based, human; conditions: Ty-82; 30 min treatment
# T1 construct: endogenous in cells; host or cells: Ty-82 NUT carcinoma cells
# Procedure: Cells were seeded on four-well chamber slides (Merck Millipore, #PEZGS0416). After treatment, cells were fixed with 4% PFA (16% Solution, Thermo Fischer #28908 Paraformaldehyde, diluted 1:4 in PBS), permeabilised with 0,1% TX-100 (Sigma #93443, diluted in PBS). After blocking in blocking buffer (10% normal goat serum, Sigma #G9023–10ml, diluted in blocking solution: 2% BSA/PBS, Sigma #A7284–50ml, diluted 1:15 in PBS), the first antibody mAB rabbit anti-NUT 1:1000 (clone C52B1, Cell Signaling #3625) in blocking buffer was added, followed by incubation with the 2nd antibody goat anti-rabbit Alexa*488 1:1000 (Thermo Fisher, #A-11008) in blocking buffer in the dark. Cells were mounted with ProLong Gold Antifade Mountant with DAPI (Thermo Fisher, #P36931) and analysed using a Laser scanning microscope (LSM700). […]
# Immunofluorescence staining of NUT megadomains on NC Ty-82 treated with BI with BI 894999 30nM for 1 h, then changed to 10 nM or 5 nM or 2.5 nM or control for 24 h.
# [8] = mice; 1 mg/kg romidepsin; BI 894999 at clinically relevant doses; data not shown
# [9] = PK analysis in mouse plasma; format: in vivo; conditions: CIEA NOG (NOD.Cg-Prkdc^scid Il2rg^tm1Sug/JicTac), oral, mice, 5 mg/kg CCS1477, exposure defined as sufficient for a synergistic effect, read-out: plasma concentration at 6 h after compound application
# Excerpt: PK analysis in mouse plasma. Oral treatment at the indicated doses. Sampling at the indicated timepoints.
# [10] = test system: T2, BRD3-NUT; experiment: IHC of 10326 xenograft tumours, NUT protein; format: in vivo, mice; conditions: day 21, CCS1477 at either dose (5 or 10 mg/kg)
# T2 construct: endogenous in cells; host or cells: 10326 NUT carcinoma cells, in culture (A11) and as subcutaneous xenograft tumours in NOG mice (A26)
# Procedure: Immunohistochemistry was performed on formalin-fixed, paraffin-embedded tumour tissue using antibodies against human Ki67(Cell Signaling #9027, 1:400 dilution), anti-human mitochondria (Abcam ab92824, 1:1000 dilution) and against endogenous NUT protein (Cell Signaling #3625, 1:50 dilution) used to detect NUT fusion proteins. Digital images of whole tissue sections were acquired using a Leica SCN400 histology scanner (Leica Microsystems). Ki67-positive index was evaluated using Halo Software V. 3.2 (Indica lab). Regions of interest (ROIs) within the tissue sections were first identified using Halo Software via machine learning technology across pathological samples and tissue control, within these ROIs, nuclei were detected and classified as positive or negative based on IHC staining thresholds.
# BRD3-NUT 10326 tumor sections after treatment with 2 mg/kg BI 894999, 5 mg/kg or 10 mg/kg CCS1477 and the combination of both. IHC staining for NUT protein.
# [11] = test system: Ty-82 xenograft (BRD4-NUT); experiment: Ty-82 NC xenograft model; format: in vivo, mice
# Excerpt: (§5) Mice were group-housed (8–10 mice per cage) under pathogen-free and controlled environmental conditions (21 ± 1.5 C temperature, 55 ± 10% humidity) in an AAALAC accredited facility and handled according to the institutional, governmental and European Union guidelines (Austrian Animal Protection Laws, GV-SOLAS and FELASA guidelines). Animal studies were approved by the internal ethics committee and the local government committee. Mice were 6- to 8-week-old female CIEA NOG purchased from Taconic, Denmark (NOD.Cg-Prkdc^scid Il2rg^tm1Sug/JicTac). 5 × 10^6 NC tumour cells were injected subcutaneously into the right flank of the mice (1 site per mouse). Mice were randomly distributed between the treatment and the vehicle control when tumours were well established and had reached volumes of 100–150 mm^3. Compounds were suspended in 0.5% Natrosol and administered once daily intra-gastral by gavage needle. Tumour diameters were measured three times a week with a calliper. […] Within each subtopic the p-values of the efficacy parameters were adjusted for multiple comparisons according to Bonferroni–Holm. The p-values of the tolerability parameter remained unadjusted in order not to overlook a possible adverse effect. The level of significance was fixed at α = 5%. An adjusted p-value of less than 0.05 was considered to show a statistically significant difference between the groups. The statistical evaluation was prepared using the software Graph Pad Prism.
# [12] = test system: 10–15 xenograft (BRD4-NUT); experiment: 10–15 NC xenograft model; format: in vivo, mice
# Excerpt: as §5
# [13] = test system: 10326 xenograft (BRD3-NUT); experiment: 10326 NC xenograft model; format: in vivo
# Excerpt: as §5
structure (smiles),measurement,setting,value
CNC(=O)N1CCc2c(c(N3CCCc4cc(-c5cnn(C)c5)c(C(F)F)cc43)nn2C2CCOCC2)C1 [GNE-781],cell growth inhibition >100% reached at clinically achievable concentrations,[1],accomplished
Cc1[nH]c2ccccc2c1CCNCc1ccc(/C=C/C(=O)NO)cc1 [Panobinostat],cell growth inhibition >100% reached at clinically achievable concentrations,[1],accomplished
CNC(=O)Nc1ccc2c(c1)CC[C@@]21OC(=O)N(CC(=O)N(Cc2ccc(F)cc2)[C@@H](C)C(F)(F)F)C1=O [A485],cell growth inhibition >100% reached at clinically achievable concentrations,[1],not
Cc1sc2c(c1C)C(c1ccc(Cl)cc1)=N[C@@H](CC(=O)OC(C)(C)C)c1nnc(C)n1-2 [JQ1],GI50,[2],84.4 nM
same,GI50,[3]; 96h,110 nM
same,GI50,[4],43.2 nM
same,GI50,[5],49.2 nM
CCNC(=O)C[C@@H]1N=C(c2ccc(Cl)cc2)c2cc(OC)ccc2-n2c(C)nnc21 [GSK525762],GI50,[2]; Homo sapiens,113 nM
same,GI50,"[3]; Homo sapiens, TY82, 96h",154 nM
same,GI50,[4]; Homo sapiens,43.6 nM
same,GI50,[5]; Homo sapiens,55 nM
Cc1cc(-c2ccc3nc(C4CCOCC4)n(CCOC(F)(F)F)c3c2)cn(C)c1=O [NEO2734],efficacy compared to BETi alone,[6],greater growth inhibition and significantly improved survival
same,GI50,[2],22.6 nM
same,GI50,[3]; 96h,26.5 nM
same,GI50,[4],11.2 nM
same,GI50,[5],20.4 nM
same,concentration at which BRD4-NUT detaches from chromatin / is re-distributed,[7],> 100 nM
C/C=C1\NC(=O)[C@H]2CSSCC/C=C/[C@H](CC(=O)N[C@H](C(C)C)C(=O)N2)OC(=O)[C@H](C(C)C)NC1=O [Romidepsin],cell growth inhibition >100% reached at clinically achievable concentrations,[1],accomplished
same,benefit when added to BI 894999,[8],did not show benefit
CO[C@H]1CC[C@H](n2c([C@@H]3CCCC(=O)N3c3ccc(F)c(F)c3)nc3cc(-c4c(C)noc4C)ccc32)CC1 [CCS1477],concentration at 6 h,[9],200 to 300 nM
same,GI50,[2]; Homo sapiens,32.9 nM
same,GI50,"[3]; Homo sapiens, TY82, 96h",38.5 nM
same,loss of speckled megadomain localisation (NUT staining),[10],not seen
same,TGI (tumour growth inhibition),[11]; 5 mg/kg CCS1477 p.o. daily,29%
same,TGI (tumour growth inhibition),[11]; 10 mg/kg CCS1477 p.o. daily,11%
same,cell growth inhibition >100% reached at clinically achievable concentrations,[1],accomplished
same,GI50,[4]; Homo sapiens,22.7 nM
same,GI50,[5]; Homo sapiens,62.9 nM
same,TGI,[12]; 5 mg/kg CCS1477,24%
same,TGI,[12]; 10 mg/kg CCS1477,30%
same,concentration at which BRD4-NUT detaches from chromatin / is re-distributed,[7],> 1000 nM
same,TGI,[13]; 5 mg/kg CCS1477,65%
same,TGI,[13]; 10 mg/kg CCS1477,88%
